Where “and” joins values, the source holds several entries; their conditions need not be identical. Equal entries are not always repeated. Toxic doses and inconclusive results are not listed. Rule for the calls: active = survival T/C of 150% or more; inactive = T/C below 125% in these data. Square brackets hold non-standard residues; d marks the D form. Peptide text beside a SMILES is read from it. * marks the point of attachment. ξ: configuration not given here. Ac5c = NC1(C(=O)O)CCCC1; Cbz = O=C(OCc1ccccc1)*; ξV = CC(C)C(N)C(=O)O
System: P388 leukemia ip, CD2F1 mice, survival T/C
Assay: NCI In Vivo Anticancer Drug Screen. Data for tumor model P388 Leukemia (intraperitoneal) in CD2F1 (CDF1) mice
Conditions: endpoint: median survival time, higher = longer survival
How it was run: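 Mice carrying the transplanted tumor received test compound or vehicle. Survival was recorded in each group, and the value is the treated-group measurement divided by that of the vehicle-treated control group.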

[1] = dose: 60.0 mg/kg/injection, schedule: Q01DX005 (ip), vehicle: Klucel (hydroxypropylcellulose) (HPC)
[2] = dose: 120.0 mg/kg/injection, schedule: Q01DX005 (ip), vehicle: Klucel (hydroxypropylcellulose) (HPC)
[3] = dose: 50.0 mg/kg/injection, schedule: Q01DX009 (ip), vehicle: saline
[4] = dose: 100.0 mg/kg/injection, schedule: Q01DX009 (ip), vehicle: saline
[5] = dose: 200.0 mg/kg/injection, schedule: Q01DX009 (ip), vehicle: saline
[6] = dose: 60.0 mg/kg/injection, schedule: Q01DX005 (ip), vehicle: saline with Tween-80
[7] = dose: 12.5 mg/kg/injection, schedule: Q01DX009 (ip), vehicle: saline with Tween-80
[8] = dose: 25.0 mg/kg/injection, schedule: Q01DX009 (ip), vehicle: saline with Tween-80
[9] = dose: 50.0 mg/kg/injection, schedule: Q01DX009 (ip), vehicle: saline with Tween-80
[10] = dose: 50.0 mg/kg/injection, schedule: Q01DX009 (ip), vehicle: Klucel (hydroxypropylcellulose) (HPC)
[11] = dose: 100.0 mg/kg/injection, schedule: Q01DX009 (ip), vehicle: Klucel (hydroxypropylcellulose) (HPC)
[12] = dose: 200.0 mg/kg/injection, schedule: Q01DX009 (ip), vehicle: Klucel (hydroxypropylcellulose) (HPC)
[13] = dose: 100.0 mg/kg/injection, schedule: Q01DX009 (ip), vehicle: saline with Tween-80
[14] = dose: 200.0 mg/kg/injection, schedule: Q01DX009 (ip), vehicle: saline with Tween-80
[15] = dose: 100.0 mg/kg/injection, schedule: Q01DX001 (ip), vehicle: Klucel (hydroxypropylcellulose) (HPC)
[16] = dose: 200.0 mg/kg/injection, schedule: Q01DX001 (ip), vehicle: Klucel (hydroxypropylcellulose) (HPC)

Measured: T/C

CCOC(=O)Cn1/c(=N/N=C(\C)c2ccc([N+](=O)[O-])o2)sc2cc(Cl)ccc21
inactive: [1] 102 % of control | [2] 106 % of control and 96 % of control | dose: 240.0 mg/kg/injection, schedule: Q01DX005 (ip), vehicle: Klucel (hydroxypropylcellulose) (HPC) 101 % of control and 91 % of control

CC/C(=N/NS(=O)(=O)c1ccc(C)cc1)c1ccc(C)c(C)c1
inactive: [3] 98 % of control | [4] 90 % of control | [5] 104 % of control

CC1=NNC(=S)NCCCN2CCN(CCCNC(=S)NN=C(C)C=NNC(=S)NCCCN3CCN(CCCNC(=S)NN=C1)CC3)CC2
inactive: dose: 50.0 mg/kg/injection, schedule: Q01DX005 (ip), vehicle: suspension in saline 106 % of control | dose: 100.0 mg/kg/injection, schedule: Q01DX005 (ip), vehicle: suspension in saline 113 % of control | dose: 200.0 mg/kg/injection, schedule: Q01DX005 (ip), vehicle: suspension in saline 106 % of control

CC(O)C(O)C(O)C(O)C=O (centres undefined)
inactive: dose: 60.0 mg/kg/injection, schedule: Q01DX005 (ip), vehicle: saline 109 % of control | dose: 240.0 mg/kg/injection, schedule: Q01DX005 (ip), vehicle: saline 100 % of control

Cc1nnc2c3nccnc3c(Cl)nn12
inactive: dose: 15.0 mg/kg/injection, schedule: Q01DX005 (ip), vehicle: saline with Tween-80 105 % of control | dose: 30.0 mg/kg/injection, schedule: Q01DX005 (ip), vehicle: saline with Tween-80 112 % of control | [6] 102 % of control and 105 % of control

Cc1c(N)ccc(O)c1C
inactive: [7] 120 % of control | [8] 105 % of control | [9] 100 % of control

Cn1/c(=N\N)sc2ccc(S(=O)(=O)O)cc21
inactive: [10] 97 % of control | [11] 103 % of control | [12] 105 % of control

C1=CCC23COCC2(C1)CSC3 (centres undefined)
inactive: dose: 12.5 mg/kg/injection, schedule: Q01DX009 (ip), vehicle: saline 96 % of control | dose: 25.0 mg/kg/injection, schedule: Q01DX009 (ip), vehicle: saline 92 % of control | [3] 99 % of control

CS(=O)(=O)c1cccc(C(=O)O)c1
inactive: [10] 108 % of control | [11] 108 % of control | [12] 99 % of control

O=C(O)c1ccc(SSc2ccc(C(=O)O)cc2)cc1
inactive: [7] 97 % of control | [8] 106 % of control | [9] 103 % of control | [13] 111 % of control

O=C(c1ccncc1)c1cc(Cl)c(Cl)cc1Cl
inactive: dose: 50.0 mg/kg/injection, schedule: Q04DX002 (ip), vehicle: saline with Tween-80 102 % of control | dose: 100.0 mg/kg/injection, schedule: Q04DX002 (ip), vehicle: saline with Tween-80 93 % of control | dose: 200.0 mg/kg/injection, schedule: Q04DX002 (ip), vehicle: saline with Tween-80 111 % of control

COC(=O)/C=C/N1CCCC1
inactive: [8] 101 % of control | [9] 108 % of control | [13] 101 % of control | [14] 92 % of control

O=C(O)c1cccc2cccc(-c3c4ccc(=O)c(O)c-4oc4c(O)c(O)ccc34)c12
inactive: [13] 109 % of control | [14] 113 % of control

O=NNc1ncc([N+](=O)[O-])s1
inactive: dose: 3.12 mg/kg/injection, schedule: Q01DX009 (ip), vehicle: water 103 % of control | dose: 6.25 mg/kg/injection, schedule: Q01DX009 (ip), vehicle: water 97 % of control | dose: 12.5 mg/kg/injection, schedule: Q01DX009 (ip), vehicle: water 94 % of control | dose: 25.0 mg/kg/injection, schedule: Q01DX009 (ip), vehicle: water 100 % of control and 96 % of control | dose: 50.0 mg/kg/injection, schedule: Q01DX009 (ip), vehicle: water 100 % of control and 97 % of control | dose: 100.0 mg/kg/injection, schedule: Q01DX009 (ip), vehicle: water 101 % of control | dose: 200.0 mg/kg/injection, schedule: Q01DX009 (ip), vehicle: water 105 % of control

CCCCCC(/C=C/C1C(O[Si](C)(C)C(C)(C)C)CC(N(C)C)C1(C/C=C/CCCC#N)S(=O)(=O)c1ccccc1)O[Si](C)(C)C(C)(C)C (centres undefined)
inactive: [1] 86 % of control | [2] 86 % of control

CC(C)C(NC(=O)C1(NC(=O)OCc2ccccc2)CCCC1)C(=O)O (centres undefined) (Cbz-[Ac5c]-[ξV]-OH)
inactive: dose: 50.0 mg/kg/injection, schedule: Q01DX005 (ip), vehicle: saline with Tween-80 99 % of control | dose: 100.0 mg/kg/injection, schedule: Q01DX005 (ip), vehicle: saline with Tween-80 96 % of control | dose: 200.0 mg/kg/injection, schedule: Q01DX005 (ip), vehicle: saline with Tween-80 99 % of control

CCOC(=O)C(N=Nc1nn[nH]n1)c1ncn[nH]1 (centres undefined)
inactive: dose: 50.0 mg/kg/injection, schedule: Q01DX001 (ip), vehicle: Klucel (hydroxypropylcellulose) (HPC) 98 % of control | [15] 98 % of control | [16] 91 % of control

Cc1cc(Cl)cnc1N
inactive: [3] 99 % of control | [4] 97 % of control | [5] 92 % of control

CC(=O)N1C(=O)Cc2ccccc21
inactive: [15] 94 % of control | [16] 90 % of control | dose: 400.0 mg/kg/injection, schedule: Q01DX001 (ip), vehicle: Klucel (hydroxypropylcellulose) (HPC) 91 % of control

COc1c(O)cc2c(c1O)C1OC(CO)C(O)C(O)C1OC2=O (centres undefined)
inactive: dose: 12.75 mg/kg/injection, schedule: Q01DX005 (ip), vehicle: Klucel (hydroxypropylcellulose) (HPC) 100 % of control | dose: 25.5 mg/kg/injection, schedule: Q01DX005 (ip), vehicle: Klucel (hydroxypropylcellulose) (HPC) 98 % of control | dose: 51.0 mg/kg/injection, schedule: Q01DX005 (ip), vehicle: Klucel (hydroxypropylcellulose) (HPC) 97 % of control | dose: 102.0 mg/kg/injection, schedule: Q01DX005 (ip), vehicle: Klucel (hydroxypropylcellulose) (HPC) 100 % of control

CP12(OC(C(F)(F)F)(C(F)(F)F)c3ccccc31)OC(C(F)(F)F)(C(F)(F)F)c1ccccc12
inactive: dose: 100.0 mg/kg/injection, schedule: Q04DX002 (ip), vehicle: Klucel (hydroxypropylcellulose) (HPC) 100 % of control | dose: 200.0 mg/kg/injection, schedule: Q04DX002 (ip), vehicle: Klucel (hydroxypropylcellulose) (HPC) 101 % of control | dose: 400.0 mg/kg/injection, schedule: Q04DX002 (ip), vehicle: Klucel (hydroxypropylcellulose) (HPC) 96 % of control

CCOC(=O)c1ccc(N=NC2Sc3nc4ccccc4n3C2=O)cc1 (centres undefined)
inactive: dose: 7.5 mg/kg/injection, schedule: Q01DX005 (ip), vehicle: Klucel (hydroxypropylcellulose) (HPC) 97 % of control | dose: 15.0 mg/kg/injection, schedule: Q01DX005 (ip), vehicle: Klucel (hydroxypropylcellulose) (HPC) 92 % of control | dose: 30.0 mg/kg/injection, schedule: Q01DX005 (ip), vehicle: Klucel (hydroxypropylcellulose) (HPC) 90 % of control

COC(=O)CS(=O)(=O)CCCCCS(=O)(=O)CC(=O)OC
inactive: [3] 97 % of control | [4] 106 % of control | [5] 99 % of control

CCCCc1n(O)c(-c2ccccc2)c(C)[n+]1[O-]
inactive: [7] 100 % of control | [8] 92 % of control | [9] 88 % of control and 91 % of control

O=C(OCC(Cl)(Cl)Cl)N1[C@@H]2C=C[C@@H](N1C(=O)OCC(Cl)(Cl)Cl)[C@@]13CC(OCc4ccc(Br)cc4)CC21O3 (some centres undefined)
inactive: dose: 50.0 mg/kg/injection, schedule: Q01DX005 (ip), vehicle: Klucel (hydroxypropylcellulose) (HPC) 105 % of control | dose: 100.0 mg/kg/injection, schedule: Q01DX005 (ip), vehicle: Klucel (hydroxypropylcellulose) (HPC) 95 % of control | dose: 200.0 mg/kg/injection, schedule: Q01DX005 (ip), vehicle: Klucel (hydroxypropylcellulose) (HPC) 95 % of control

O=C(NNc1ccc(F)cc1)C12CC3CC(CC(C3)C1)C2
inactive: [7] 103 % of control | [8] 99 % of control | [9] 87 % of control

C=C(C)C1CC2=C(C(=O)OC)C=C(O2)C(C(=C)C)C2C=C(C(=O)O2)C2OC12 (centres undefined)
inactive: dose: 12.5 mg/kg/injection, schedule: Q01DX005 (ip), vehicle: saline + alcohol 99 % of control | dose: 25.0 mg/kg/injection, schedule: Q01DX005 (ip), vehicle: saline + alcohol 103 % of control | dose: 50.0 mg/kg/injection, schedule: Q01DX005 (ip), vehicle: saline + alcohol 97 % of control | dose: 100.0 mg/kg/injection, schedule: Q01DX005 (ip), vehicle: saline + alcohol 108 % of control

C=CCC1(C)C(=O)CCC1=O
inactive: [6] 110 % of control | dose: 120.0 mg/kg/injection, schedule: Q01DX005 (ip), vehicle: saline with Tween-80 102 % of control | dose: 240.0 mg/kg/injection, schedule: Q01DX005 (ip), vehicle: saline with Tween-80 98 % of control
